Literature values as cited in patent publication EP4378455A1, “A PHARMACEUTICAL FORMULATION COMPRISING EMPAGLIFLOZIN” (SANOVEL ILAC SANAYI VE TICARET A.S., priority 2022, dated 2024).

## OC[C@H]1O[C@@H](c2ccc(Cl)c(Cc3ccc(O[C@H]4CCOC4)cc3)c2)[C@H](O)[C@@H](O)[C@@H]1O [Empagliflozin, (1S)-1,5-anhydro-1-(4-chloro-3-{4-[(3S)-tetrahydrofuran-3-yloxy]benzyl}phenyl)-D-glucitol]
acetonitrile
  solubility in acetonitrile: slightly soluble
ethanol
  solubility in ethanol: slightly soluble
methanol
  solubility in methanol: sparingly soluble
toluene
  solubility in toluene: practically insoluble
Water (pH 1-7.4)
  solubility in water: very slightly soluble
